The experiment has as its system CD2F1 mice, L1210 leukemia ip, survival T/C. The experiment in a line: NCI In Vivo Anticancer Drug Screen. Data for tumor model L1210 Leukemia (intraperitoneal) in CD2F1 (CDF1) mice. Conditions: higher = longer survival. The essentials: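 Each value reflects a quotient of treated over vehicle control outcomes in mice with a transplanted tumor.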
The mark [1] stands for this setting: endpoint: mean survival time, dose: 100.0 mg/kg/injection, schedule: Q04DX003 (ip), vehicle: saline with Tween-80.
The mark [2] stands for this setting: endpoint: mean survival time, dose: 200.0 mg/kg/injection, schedule: Q04DX003 (ip), vehicle: saline with Tween-80.
[3] abbreviates: endpoint: mean survival time, dose: 400.0 mg/kg/injection, schedule: Q04DX003 (ip), vehicle: saline with Tween-80.
Setting [4] is: endpoint: mean survival time, dose: 50.0 mg/kg/injection, schedule: Q01DX009 (ip), vehicle: saline with Tween-80.
Where [5] appears, read: endpoint: mean survival time, dose: 100.0 mg/kg/injection, schedule: Q01DX009 (ip), vehicle: saline with Tween-80.
Setting [6] is: endpoint: mean survival time, dose: 100.0 mg/kg/injection, schedule: Q01DX001 (ip), vehicle: saline.
Setting [7] is: endpoint: mean survival time, dose: 200.0 mg/kg/injection, schedule: Q01DX001 (ip), vehicle: saline.
The mark [8] stands for this setting: endpoint: mean survival time, dose: 400.0 mg/kg/injection, schedule: Q01DX001 (ip), vehicle: saline.
The mark [9] stands for this setting: endpoint: mean survival time, dose: 200.0 mg/kg/injection, schedule: Q01DX009 (ip), vehicle: saline.
Setting [10] is: endpoint: mean survival time, dose: 100.0 mg/kg/injection, schedule: Q01DX001 (ip), vehicle: saline with Tween-80.
Where [11] appears, read: endpoint: mean survival time, dose: 200.0 mg/kg/injection, schedule: Q01DX001 (ip), vehicle: saline with Tween-80.
Setting [12] is: endpoint: mean survival time, dose: 400.0 mg/kg/injection, schedule: Q01DX001 (ip), vehicle: saline with Tween-80.
The mark [13] stands for this setting: endpoint: mean survival time, dose: 100.0 mg/kg/injection, schedule: Q04DX003 (ip), vehicle: saline.
Setting [14] is: endpoint: mean survival time, dose: 25.0 mg/kg/injection, schedule: Q01DX009 (ip), vehicle: saline with Tween-80.

Each structure is given as a SMILES string. Toxic doses and inconclusive results are not listed.

Turning to `N[N+]#COC1C(C(=O)NN)C1C(=O)NN` (configuration not stated), the T/C (endpoint: median survival time, dose: 50.0 mg/kg/injection, schedule: Q04DX002 (ip), vehicle: saline with Tween-80) was 94 % of control; the T/C (endpoint: median survival time, dose: 100.0 mg/kg/injection, schedule: Q04DX002 (ip), vehicle: saline with Tween-80) was 105 % of control; the T/C (endpoint: median survival time, dose: 400.0 mg/kg/injection, schedule: Q04DX002 (ip), vehicle: saline with Tween-80) is 105 % of control.
Consider `Cc1ccc(C)c(NC(=O)c2ccc(Cl)cc2)c1`, for which the T/C is 97 % of control under setting [1], 97 % of control under setting [2] and 92 % of control under setting [3].
For `C=CCCCCCCCCC(=O)NCC1CCCCO1` (configuration not stated), the T/C was 94 % of control under setting [1], 98 % of control under setting [2] and 93 % of control under setting [3].
Turning to `Cc1cnc([Se])[nH]c1=O`, the T/C was 87 % of control (endpoint: mean survival time, dose: 25.0 mg/kg/injection, schedule: Q01DX005 (ip), vehicle: water) and 90 % of control (endpoint: mean survival time, dose: 50.0 mg/kg/injection, schedule: Q01DX005 (ip), vehicle: water).
Consider `C1OCC2[CH2][Hg][S][Hg][CH2]C1O2`, for which the T/C reads like this: (endpoint: mean survival time, dose: 4.0 mg/kg/injection, schedule: Q01DX015 (ip), vehicle: saline) 109 % of control; (endpoint: mean survival time, dose: 8.0 mg/kg/injection, schedule: Q01DX015 (ip), vehicle: saline) 107 % of control.
Consider `Cc1cc(C)c(O)c(C)c1.[Hg]`, for which the T/C runs as follows: (endpoint: mean survival time, dose: 1.56 mg/kg/injection, schedule: Q01DX001 (ip), vehicle: Klucel (hydroxypropylcellulose) (HPC)) 98 % of control; (endpoint: mean survival time, dose: 3.13 mg/kg/injection, schedule: Q01DX001 (ip), vehicle: Klucel (hydroxypropylcellulose) (HPC)) 92 % of control; (endpoint: mean survival time, dose: 6.25 mg/kg/injection, schedule: Q01DX001 (ip), vehicle: Klucel (hydroxypropylcellulose) (HPC)) 103 % of control.
For `CCOC(=O)CN1C(=O)c2ccccc2C1=O`, the T/C reads like this: (endpoint: mean survival time, dose: 12.5 mg/kg/injection, schedule: Q01DX009 (ip), vehicle: other) 97 % of control; (endpoint: mean survival time, dose: 25.0 mg/kg/injection, schedule: Q01DX009 (ip), vehicle: other) 97 % of control; (endpoint: mean survival time, dose: 50.0 mg/kg/injection, schedule: Q01DX009 (ip), vehicle: other) 98 % of control; under setting [4], 88 % of control; (endpoint: mean survival time, dose: 100.0 mg/kg/injection, schedule: Q01DX009 (ip), vehicle: other) 93 % of control; under setting [5], 103 % of control. In addition, the T/C is 97 % of control (endpoint: mean survival time, dose: 200.0 mg/kg/injection, schedule: Q01DX009 (ip), vehicle: other) and 92 % of control (endpoint: mean survival time, dose: 200.0 mg/kg/injection, schedule: Q01DX009 (ip), vehicle: saline with Tween-80).
With `S=P(S)(c1ccccc1)c1ccccc1`, the T/C reads like this: (endpoint: mean survival time, dose: 80.5 mg/kg/injection, schedule: Q01DX009 (ip), vehicle: saline with Tween-80) 104 % of control; (endpoint: mean survival time, dose: 161.0 mg/kg/injection, schedule: Q01DX009 (ip), vehicle: saline with Tween-80) 98 % of control; (endpoint: mean survival time, dose: 322.0 mg/kg/injection, schedule: Q01DX009 (ip), vehicle: saline with Tween-80) 100 % of control.
With `CCCC(C)(CC)NC(=O)OCC` (configuration not stated), the T/C under setting [6] is 107 % of control, the T/C under setting [7] is 111 % of control and the T/C under setting [8] was 111 % of control.
Take `C(=C\CN1CCOCC1)/CN1CCOCC1`: the T/C was 91 % of control (endpoint: mean survival time, dose: 100.0 mg/kg/injection, schedule: Q01DX009 (ip), vehicle: saline); 97 % of control under setting [9]; 97 % of control (endpoint: mean survival time, dose: 400.0 mg/kg/injection, schedule: Q01DX009 (ip), vehicle: saline).
Regarding `CC(=O)Nc1ccc2c(c1)C(=O)c1cc(NC(C)=O)ccc1-2`, the T/C under setting [10] was 98 % of control, the T/C under setting [11] was 111 % of control and the T/C under setting [12] was 98 % of control.
For the compound `N#CC1CNC(N)NC1N` (configuration not stated), the T/C runs as follows: (endpoint: mean survival time, dose: 50.0 mg/kg/injection, schedule: Q01DX009 (ip), vehicle: Klucel (hydroxypropylcellulose) (HPC)) 98 % of control; (endpoint: mean survival time, dose: 100.0 mg/kg/injection, schedule: Q01DX009 (ip), vehicle: Klucel (hydroxypropylcellulose) (HPC)) 91 % of control; (endpoint: mean survival time, dose: 200.0 mg/kg/injection, schedule: Q01DX009 (ip), vehicle: Klucel (hydroxypropylcellulose) (HPC)) 98 % of control.
Turning to `O=NN1C(=O)C2CC3CC(C2)CC1C3`, the T/C (endpoint: mean survival time, dose: 12.5 mg/kg/injection, schedule: Q04DX003 (ip), vehicle: acetone) is 94 % of control.
Consider `OCC1OC(n2cnc3c(SCc4ccccc4)ncnc32)C(O)C1O` (configuration not stated), for which the T/C by setting is: (endpoint: mean survival time, dose: 78.0 mg/kg/injection, schedule: Q01DX001 (ip), vehicle: saline) 104 % of control; under setting [13], 101 % of control; (endpoint: mean survival time, dose: 117.0 mg/kg/injection, schedule: Q01DX001 (ip), vehicle: saline) 109 % of control; (endpoint: mean survival time, dose: 132.0 mg/kg/injection, schedule: Q01DX009 (ip), vehicle: saline) 176 % of control; under setting [9], 187 % of control; (endpoint: mean survival time, dose: 200.0 mg/kg/injection, schedule: Q04DX003 (ip), vehicle: saline) 98 % of control. Besides, the T/C is, setting by setting: (endpoint: mean survival time, dose: 400.0 mg/kg/injection, schedule: Q01DX001 (ip), vehicle: other) 152 % of control; (endpoint: mean survival time, dose: 400.0 mg/kg/injection, schedule: Q04DX003 (ip), vehicle: saline) 104 % of control.
`CC(=O)CC(=O)OCc1ccccc1`: the T/C by setting is: under setting [1], 100 % of control; under setting [2], 95 % of control; under setting [3], 103 % of control.
As to `Cc1cc2c(cc1C)[n+]([O-])c1c(=O)[nH]c(=O)[nH]c1[n+]2[O-]`, the T/C is 98 % of control (endpoint: mean survival time, dose: 25.0 mg/kg/injection, schedule: Q04DX002 (ip), vehicle: saline with Tween-80) and 102 % of control (endpoint: mean survival time, dose: 50.0 mg/kg/injection, schedule: Q04DX002 (ip), vehicle: saline with Tween-80).
On to `CCC(CC)N=C(N)N`, for which the T/C was 100 % of control under setting [14]; 100 % of control (endpoint: mean survival time, dose: 25.0 mg/kg/injection, schedule: Q04DX003 (ip), vehicle: saline); 93 % of control under setting [4]; 97 % of control (endpoint: mean survival time, dose: 50.0 mg/kg/injection, schedule: Q04DX003 (ip), vehicle: saline); 98 % of control under setting [5]; 94 % of control under setting [13].
Turning to `Cc1noc2nccnc12`, the T/C by setting is: under setting [4], 103 % of control; under setting [5], 101 % of control; under setting [1], 94 % of control.
For the compound `Nc1nc(-c2cc(Br)ccc2N=NN2CCCC2)nc2ccc(Br)cc12`, the T/C was 95 % of control (endpoint: mean survival time, dose: 100.0 mg/kg/injection, schedule: Q04DX002 (ip), vehicle: Klucel (hydroxypropylcellulose) (HPC)); 113 % of control (endpoint: mean survival time, dose: 200.0 mg/kg/injection, schedule: Q04DX002 (ip), vehicle: Klucel (hydroxypropylcellulose) (HPC)); 98 % of control (endpoint: mean survival time, dose: 400.0 mg/kg/injection, schedule: Q04DX002 (ip), vehicle: Klucel (hydroxypropylcellulose) (HPC)).
For the compound `C=C(Br)CNC(=O)NCC(=C)Br`, the T/C runs as follows: under setting [10], 91 % of control; under setting [11], 96 % of control; under setting [12], 101 % of control.
Turning to `Nc1ncc[nH]1`, the T/C by setting is: (endpoint: mean survival time, dose: 50.0 mg/kg/injection, schedule: Q01DX001 (ip), vehicle: saline) 110 % of control; under setting [6], 108 % of control; under setting [7], 110 % of control; under setting [8], 108 % of control.
Turning to `CCOC(=O)Nc1cc2c(c(N)n1)N=C(c1ccc3ccccc3c1)CN2`, the T/C was 122 % of control (endpoint: median survival time, dose: 0.93 mg/kg/injection, schedule: Q01DX009 (ip), vehicle: saline with Tween-80); 112 % of control (endpoint: median survival time, dose: 1.0 mg/kg/injection, schedule: Q01DX009 (ip), vehicle: saline with Tween-80); 113 % of control (endpoint: median survival time, dose: 1.87 mg/kg/injection, schedule: Q01DX009 (ip), vehicle: saline with Tween-80); 121 % of control (endpoint: median survival time, dose: 3.75 mg/kg/injection, schedule: Q01DX009 (ip), vehicle: saline with Tween-80); 113 % of control (endpoint: median survival time, dose: 15.0 mg/kg/injection, schedule: Q01DX009 (ip), vehicle: saline with Tween-80); 114 % of control (endpoint: median survival time, dose: 16.0 mg/kg/injection, schedule: Q01DX009 (ip), vehicle: saline with Tween-80).
Turning to `C=CCOC(OCC=C)C(OCC=C)OCC=C`, the T/C runs as follows: under setting [1], 102 % of control; under setting [2], 96 % of control; under setting [3], 96 % of control.
As to `O=C1CNC(c2ccccc2)C(c2ccccc2)N1` (configuration not stated), the T/C reads like this: under setting [1], 100 % of control; under setting [2], 102 % of control; under setting [3], 101 % of control.
As to `C[n+]1cccc(C(=S)[S-])c1`, the T/C under setting [14] was 102 % of control, the T/C under setting [4] is 101 % of control and the T/C under setting [1] was 101 % of control.
